Experimental data as given in patent EP3381909A1, “NEW TRIAZINE SUBSTANCE FOR USE IN THE TREATMENT OF CANCER, SPECIFICALLY IN THE TREATMENT OF NON-SMALL CELL CANCER, AND PHARMACEUTICAL COMPOSITION COMPRISING SAID SUBSTANCE” (Universite de Nantes, priority 2017, dated 2018).
Like-named read-outs stand apart in the source and are kept apart here.

Tests used:
A549 [1] = experiment: Cytotoxicity determination, continuous drug exposure (MTT colorimetric assay); format: cell-based; settings: for IC50: Homo sapiens, A549 cell line, MTT, read-out: IC50: Half maximal inhibitory concentration
Method: (§1) A549 and NSCLC-N6 cell lines were used for all experiments. They were obtained respectively from an adenocarcinoma and an epidermoid lung cancer. The NSCLC-N6-L16 cell line was derived from a human non-small-cell bronchopulmonary carcinoma (moderately differentiated, classified as T2N0M0). The A549 was obtained from the ATCC collection (reference CCL-185) and is known to have a wild type p53 gene, while NSCLC-N6 has a mutant p53 gene, similar to the in situ tumors.
(§2) Both cell lines were cultured in RPMI-1640 medium with 5% fetal bovine serum, to which were added 100 IU penicillin/ml, 100 µg/mL streptomycin and 2 mM glutamine at 37°C in an air/carbon dioxide (95:5, v/v) atmosphere. The NSCLC-N6-L16 cell line is a model which never exceeded 35 passages in all experiments. Then this model stays very close to the original tumor.
(§3) Experiments were performed in 96-well microtiter plates (10^5 cells/mL for NSCLC-N6-L16 and 2X10^4 cells/mL for A549). Cell growth was estimated by a colorimetric assay based on the conservation of tetrazolium dye (MTT) to a blue formazan product by live mitochondria. Eight repeats were performed for each concentration. Control growth was estimated from 8 determinations. Optical density at 570 nm corresponding to solubilized formazan was read for each well on a Titertek Multiskan MKII.

NSCLC-N6-L16 [2] = experiment: as above; format: cell-based; settings: Homo sapiens, read-out: IC50: Half maximal inhibitory concentration
Method: as §1, §2, §3

NSCLC-N6-L16 [3] = experiment: Continuous drug exposure growth kinetics over 72 h; format: cell-based, human; settings: for "plateau" of cytostatic type, time of treatment after which it is visible: NSCLC-N6-L16, highest doses, A190: 104.9 µM, 78.9 µM, A204: 8.4 µM, 5.6 µM
Method: as §3
(§4) The kinetics were carried out on the two cell lines NSCLC-N6-L16 and A549 over a time of 72 h. The results are presented in the graphs of figures 1 to 4 representing the cell growth as a function of time. One of the curves represents the cell growth control; the others correspond to the different concentrations tested. The latter are chosen according to the IC50 in order to surround it at best (Table 3).

A549 [4] = experiment: Continuous drug exposure growth kinetics over 72 h; format: cell-based; settings: for cell growth (proliferation) versus time: A549, 72 h kinetics
Method: as §3, §4

[5] = tested on: A549 cells synchronised in M phase; settings: after 17 hours of treatment, previous work; cited from earlier work
mutant p53, NEDD9 gene = settings: Rousseau et al., Sci. Rep. 5, 10556, 2015; cited from earlier work
[6] = tested on: NSCLC-N6-L16 cells synchronised in M phase; experiment: Gene expression by quantitative real-time RT-PCR in cells synchronised in M phase; format: cell-based, human
Description: (§5) During the mitosis, cell shape and adhesion are radically changed. Indeed, this phase induces a depolymerization of the microtubules, a loss of the cytoskeleton and consequently a decrease of the adhesion to the support. […] It is thus easy to isolate these cells by a slight agitation of the culture medium in order to remove and suspend the cells. The cells are then recovered by slow centrifugation and replaced in a new culture flask.
(§6) Total RNA was extracted from NSCLC-N6-L16 and A549 cell lines using the Dynabeads® mRNA DirectTM Kit (Ambion by Life Technologies). The isolation protocol relies on base pairing between the polyA residues at the 3' end of most mRNA and the oligo (dT) residues covalently coupled to the surface of the Dynabeads®. The quality and concentration of purified RNA were assessed using UV absorbance at 260/280 nm and samples were run on 1% agarose gel in order to assess their quality. RNA was stored at - 80 °C.
RT was carried out with 1 µg of RNA in 10 µL with 0.125 µg/µL random primers and RNase-free water. This mixture was denatured at 65°C for 10 min then kept on ice. Subsequently, it was completed to a final volume of 25 µL with a mix containing 8 mM of dNTP mix, 1X of M- MLV 5X reaction buffer, 25 units of recombinant RNasin ribonuclease inhibitor (Promega), and 200 units of M-MLV RT (Promega) and RNase-free water. In order to check whether the samples were contaminated by genomic DNA, the same mix was made with RNA without the reverse transcriptase. Following this step, samples were incubated for 2 h at 37°C. cDNAs were stored at -20°C. After reverse transcription, cDNAs were used as a template for specific qPCR.
Real-time RT-PCR was carried out in a final volume of 25 µL with 1µL 1:20 dilution of diluted cDNA mixture, 10 pmol gene-specific forward and 10 pmol reverse primer in 1X SYBR Green PCR master mix (Eurogentec) with the following protocol: 15 s at 95 °C for denaturation, 30 s at 60°C for annealing and extension on a ABI Prism Sequence Detection System 5700 (Applied Biosystems). The primers were designed using Primer 3 (http://frodo.wi.mit.edu/). All primer sequences were controlled with a dimers finder to reduce the risk of unspecific hybridization of Sybr-green (Operon oligo toolkit: see https://www.operon.com(oligos/toolkit.php).
The relative expression of each gene was normalized to that of human β-actin: forward 5'-[…]-3' (SEQ ID NO: 13), reverse 5'-[…]-3' (SEQ ID NO: 14) (10 mM, Sigma Genosys). Normalization was carried out using the ΔΔCt method. Non-template control sample was used for each PCR to check the genomic DNA contaminations of the cDNA template. Analysis of the results was carried out using GenAmp 5700 SDS (Applied Biosystems) software.
The expression of four genes of interests were studied in the cell line NSCLC-N6-L16: HEF1, p53, C3G and FAK. It was carried out by RT-QPCR on the synchronized cells not treated (dark histograms) or treated (grey histograms) by A240 at the IC50. The study was performed between 10 and 17 hours in order to follow the gene expression with an extraction every hour.

[7] = tested on: A549 cells synchronised in M phase; experiment: as above; format: cell-based; settings: A549, at 17 hours; treated at the IC50 (figure legend: 39.4µM)
Description: as §5, §6
RT was carried out with 1 µg of RNA in 10 µL with 0.125 µg/µL random primers and RNase-free water. This mixture was denatured at 65°C for 10 min then kept on ice. Subsequently, it was completed to a final volume of 25 µL with a mix containing 8 mM of dNTP mix, 1X of M- MLV 5X reaction buffer, 25 units of recombinant RNasin ribonuclease inhibitor (Promega), and 200 units of M-MLV RT (Promega) and RNase-free water. […]

synchronized cells = experiment: Activity kinetics on synchronized cells (data not shown); format: cell-based
Description: as §5
It was observed that the cell doubling time of the cell line NSCLC-N6-L16 is about 17 hours and 22-23 hours for A549. Indeed, the molecule A204 act on different genes such as HEF1, the expression of which is variable along the cell cycle.

Structure (SMILES): NC1=NC(C23CC4CC(CC(C4)C2)C3)N(c2ccc(Cl)cc2)C(N)=N1 (centres unmarked) [A190]
- IC50 (A549 [1]): 71 ± 1.2 µM
- IC50 (NSCLC-N6-L16 [2]): 24.1 ± 2.2 µM
- cell growth (proliferation) versus time (NSCLC-N6-L16 [3]; NSCLC-N6-L16, 72 h kinetics): reduced for both cell lines in a dose-dependent manner
- cytostatic activity since (concentration) (NSCLC-N6-L16 [3]; NSCLC-N6-L16, continuous exposure): ≥ 26.3 µM
- "plateau" of cytostatic type, time of treatment after which it is visible (NSCLC-N6-L16 [3]): > 48 h
- cell growth (proliferation) versus time (A549 [4]): reduced for both cell lines in a dose-dependent manner
- cytostatic activity since (concentration) (A549 [4]; A549, continuous exposure): ≥ 26.3 µM
- plateau of cytostatic type, time of treatment after which it is visible (A549 [4]; A549, A190 at 104.9, 78.9, 52.6, 26 µM): > 48 h
- expression of gene AKT [5]: overexpression
- expression of gene PI3K [5]: overexpression
- expression of the NEDD9 gene (mutant p53, NEDD9 gene): overexpression
- mutant p53 activity (mutant p53, NEDD9 gene): restores mutant p53 activity

Structure (SMILES): NC1=NC(C23CC4CC(CC(C4)C2)C3)N(Cc2ccc(Cl)cc2)C(N)=N1 (centres unmarked) [A204, 4,6-diamino-1,2-dihydro-1-(4"-chlorobenzyl)-2-(1-tricyclo [3.3.1.1,4]decyl)-1,3,5-triazine]
- IC50 / amount required compared with A190 (A549 [1]; A549, relative to A190): seven times less
- IC50 (A549 [1]): 9.7 ± 0.7 µM
- IC50 (NSCLC-N6-L16 [2]): 5.01 ± 0.5 µM
- "plateau" of cytostatic type, time of treatment after which it is visible (NSCLC-N6-L16 [3]): > 48 h
- cell growth (proliferation) versus time (A549 [4]): follow perfectly that of the control cells
- expression of gene P53 ([6]; 10 to 17 hours, treated vs control): clearly shows an influence of the treatment on the expression
- time of action compared with A190 ([6]; NSCLC-N6-L16, same cytostatic effect, relative to A190): three hours earlier
- expression of gene C3G ([6]; at 17 hours (G2 / M phase)): collapse
- expression of gene HEF1 ([6]; at around 12 hours, treated at the IC50 (figure legend: 39.4µM) vs control): highly overexpressed
- expression of gene C3G ([6]; between 11 and 13 hours (end of G1 phase)): widely overexpressed
- expression of gene FAK ([6]; between 12 and 16 hours (phase of synthesis)): decreased expression
- expression of gene HEF1 ([6]; between 13 and 15 hours): collapses
- expression of gene C3G ([6]; between 13 and 16h): goes up gradually
- expression of gene HEF1 ([6]; between 15 and 17 hours (G2 / M phase)): relatively close to the level of the control cells
- expression of gene AKT [7]: overexpression
- expression of gene PI3K [7]: overexpression
- time at which the effect of the treatment is beginning (synchronized cells): around 30 hours
